Results as given in ChEMBL document CHEMBL3860094, “Synthesis, structure determination, and biological evaluation of phenylsulfonyl hydrazide derivatives as potential anti-inflammatory agents” (Bioorg Med Chem Lett, 2016).

Assays:
[1] = species on record: Mus musculus; test: Cytotoxicity against LPS-stimulated mouse RAW264.7 cells assessed as concentration required for reduction in cell viability after 24 hrs by MTT assay; format: toxicity, cell-based; details: raw264.7, 24 h
[2] = molecular target: T1, Prostaglandin E synthase (Mus musculus) (UniProt Q9JM51); test: Inhibition of mPGES-1 in mouse RAW264.7 cells assessed as reduction in LPS-induced PGE2 production at 1 uM after 24 hrs relative to control; format: cell-based
T1 sequence (whole entry): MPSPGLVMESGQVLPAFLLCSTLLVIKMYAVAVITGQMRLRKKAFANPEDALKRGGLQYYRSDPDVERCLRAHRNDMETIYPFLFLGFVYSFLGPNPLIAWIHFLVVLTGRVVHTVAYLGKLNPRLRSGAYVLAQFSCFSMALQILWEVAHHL

[3] = molecular target: T2, Prostaglandin E synthase (Mus musculus, UniProt Q9JM51); test: Inhibition of mPGES-1 in mouse RAW264.7 cells assessed as reduction in LPS-induced PGE2 production after 24 hrs; format: cell-based
T2 sequence (Q9JM51 whole entry): T1 sequence (whole entry)

[4] = molecular target: T3, Prostaglandin G/H synthase 1 (Ovis aries, UniProt P05979); test: Inhibition of ovine COX1 by enzyme immunoassay
T3 sequence (P05979 whole entry): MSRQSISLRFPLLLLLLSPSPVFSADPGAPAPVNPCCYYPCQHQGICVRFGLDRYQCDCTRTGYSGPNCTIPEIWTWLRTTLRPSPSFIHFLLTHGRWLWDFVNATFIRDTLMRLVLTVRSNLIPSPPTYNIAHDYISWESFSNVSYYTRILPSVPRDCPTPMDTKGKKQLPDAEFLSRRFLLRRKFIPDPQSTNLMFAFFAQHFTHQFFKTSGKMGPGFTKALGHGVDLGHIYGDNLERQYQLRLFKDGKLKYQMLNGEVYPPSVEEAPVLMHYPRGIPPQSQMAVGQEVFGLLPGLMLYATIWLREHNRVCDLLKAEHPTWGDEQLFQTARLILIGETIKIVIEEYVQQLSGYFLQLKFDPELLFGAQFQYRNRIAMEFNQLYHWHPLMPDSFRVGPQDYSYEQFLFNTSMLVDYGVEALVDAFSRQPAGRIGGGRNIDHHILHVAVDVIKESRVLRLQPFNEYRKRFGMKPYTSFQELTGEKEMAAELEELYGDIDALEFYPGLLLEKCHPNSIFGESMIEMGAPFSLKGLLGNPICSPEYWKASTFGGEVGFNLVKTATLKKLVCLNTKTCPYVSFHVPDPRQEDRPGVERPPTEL

[5] = molecular target: T4, Prostaglandin G/H synthase 2 (Homo sapiens, UniProt P35354); test: Inhibition of recombinant human COX2 by enzyme immunoassay
T4 sequence (P35354 whole entry): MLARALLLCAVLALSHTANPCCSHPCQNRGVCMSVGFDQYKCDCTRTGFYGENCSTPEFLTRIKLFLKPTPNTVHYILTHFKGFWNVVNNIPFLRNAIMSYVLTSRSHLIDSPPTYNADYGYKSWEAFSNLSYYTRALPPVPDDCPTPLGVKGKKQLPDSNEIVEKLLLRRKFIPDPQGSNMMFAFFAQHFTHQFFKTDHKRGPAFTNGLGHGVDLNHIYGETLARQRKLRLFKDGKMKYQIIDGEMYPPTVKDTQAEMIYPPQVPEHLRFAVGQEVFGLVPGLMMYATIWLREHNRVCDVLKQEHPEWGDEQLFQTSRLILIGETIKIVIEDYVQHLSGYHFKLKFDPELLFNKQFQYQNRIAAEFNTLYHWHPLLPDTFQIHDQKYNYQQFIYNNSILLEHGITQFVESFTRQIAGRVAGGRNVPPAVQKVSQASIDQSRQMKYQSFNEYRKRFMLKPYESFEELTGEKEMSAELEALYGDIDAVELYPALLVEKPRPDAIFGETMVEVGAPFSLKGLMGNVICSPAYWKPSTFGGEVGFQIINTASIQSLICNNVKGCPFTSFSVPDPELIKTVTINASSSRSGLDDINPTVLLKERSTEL

[6] = Metabolic stability in human liver microsomes assessed as compound remaining after 30 mins; format: ADME; details: read-out: Stability
[7] = molecular target: T1, Prostaglandin E synthase (Mus musculus); test: Inhibition of mPGES-1 in mouse RAW264.7 cells assessed as reduction in LPS-induced PGE2 production at 3 uM after 24 hrs relative to control; format: cell-based
[8] = molecular target: T1, Prostaglandin E synthase (Mus musculus); test: Inhibition of mPGES-1 in mouse RAW264.7 cells assessed as reduction in LPS-induced PGE2 production at 10 uM after 24 hrs relative to control; format: cell-based
[9] = Metabolic stability in dog liver microsomes assessed as compound remaining after 30 mins; format: ADME, Canis lupus familiaris; details: read-out: Stability
[10] = Metabolic stability in rat liver microsomes assessed as compound remaining after 30 mins; format: ADME; details: read-out: Stability
[11] = Metabolic stability in mouse liver microsomes assessed as compound remaining after 30 mins; format: ADME; details: read-out: Stability

In the case of `COc1ccc(S(=O)(=O)N(Nc2ccccc2)C(=O)Oc2ccccc2OC)cc1`, the Activity [1] is reported as > 10 µM, the inhibition [2] is reported as 63% and the IC50 [3] is reported as 690 nM. For the same compound, the IC50 [4] was > 1000 nM and the IC50 [5] was > 1000 nM.

For `O=C(Oc1ccc2c(c1)CCC2)N(NS(=O)(=O)c1ccc(Cl)cc1)c1ccccc1`, the Activity [1] was > 10 µM, the inhibition [2] was 73% and the IC50 [3] was 790 nM. The IC50 [4] was > 1000 nM and the IC50 [5] was > 1000 nM.

In the case of `COc1ccc(CCN(C)CCCC(C#N)(c2ccc(OC)c(OC)c2)C(C)C)cc1OC` (stereo unspecified), the remaining at 0.5 h [6] is reported as < 5%.

`CS(=O)(=O)Nc1ccc([N+](=O)[O-])cc1OC1CCCCC1` [NS-398] gave an inhibition [7] of 86% and an IC50 [3] of 7 nM.

In the case of `COc1ccc(S(=O)(=O)NN(C(=O)Oc2ccccc2OC)c2ccccc2)cc1`, the Activity [1] is reported as > 10 µM, the inhibition [2] is reported as 0% and the inhibition [8] is reported as 18%. The IC50 [3] was > 10000 nM.

For `COc1ccc(S(=O)(=O)N(Nc2ccccc2)C(=O)Oc2ccc(OCc3ccccc3)cc2)cc1`, the Activity [1] was > 10 µM, the inhibition [2] was 84% and the IC50 [3] was 60 nM. The IC50 [4] was > 1000 nM, the IC50 [5] was > 1000 nM and the remaining at 0.5 h [6] was 66.6%. It also gave a remaining at 0.5 h [9] of 48.5%, a remaining at 0.5 h [10] of 16.3% and a remaining at 0.5 h [11] of 42.2%.

In the case of `O=C(Oc1ccc2c(c1)CCC2)N(Nc1ccccc1)S(=O)(=O)c1ccc(Cl)cc1`, the Activity [1] is reported as > 10 µM, the inhibition [2] is reported as 75% and the IC50 [3] is reported as 550 nM. For the same compound, the IC50 [4] was > 1000 nM and the IC50 [5] was > 1000 nM.
